These results are taken from ChEMBL document CHEMBL1955760, “Pyrrolovesamicols--synthesis, structure and VAChT binding of two 4-fluorobenzoyl regioisomers” (Bioorg Med Chem Lett, 2012).

pKi: −log10 of the molar value.

Experiment [1] deals with T1, Vesicular acetylcholine transporter (Homo sapiens, UniProt Q16572).
T1 sequence (Q16572 whole entry): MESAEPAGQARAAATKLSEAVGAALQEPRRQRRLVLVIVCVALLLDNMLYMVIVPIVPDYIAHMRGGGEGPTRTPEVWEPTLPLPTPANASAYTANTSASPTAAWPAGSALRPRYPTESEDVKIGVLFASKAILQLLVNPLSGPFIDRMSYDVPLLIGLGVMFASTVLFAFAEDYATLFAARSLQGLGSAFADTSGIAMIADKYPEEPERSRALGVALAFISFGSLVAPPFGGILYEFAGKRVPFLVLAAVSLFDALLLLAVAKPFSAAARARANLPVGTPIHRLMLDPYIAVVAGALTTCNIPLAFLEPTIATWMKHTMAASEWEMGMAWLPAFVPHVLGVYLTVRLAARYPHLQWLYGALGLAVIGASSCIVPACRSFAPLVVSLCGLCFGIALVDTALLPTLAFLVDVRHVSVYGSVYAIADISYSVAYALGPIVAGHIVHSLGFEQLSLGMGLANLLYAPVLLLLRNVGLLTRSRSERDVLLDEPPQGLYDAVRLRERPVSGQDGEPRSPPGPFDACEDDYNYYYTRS
Kind of experiment: Binding affinity to VAchT.

The target in experiment [2] is T1, Vesicular acetylcholine transporter. Kind of experiment: Binding affinity to VAchT transfected in rat PC12 cells. In kind it is cell-based, PC-12.
Experiment [3] deals with T2, Vesicular acetylcholine transporter (Rattus norvegicus, UniProt Q62666).
T2 sequence (Q62666 whole entry): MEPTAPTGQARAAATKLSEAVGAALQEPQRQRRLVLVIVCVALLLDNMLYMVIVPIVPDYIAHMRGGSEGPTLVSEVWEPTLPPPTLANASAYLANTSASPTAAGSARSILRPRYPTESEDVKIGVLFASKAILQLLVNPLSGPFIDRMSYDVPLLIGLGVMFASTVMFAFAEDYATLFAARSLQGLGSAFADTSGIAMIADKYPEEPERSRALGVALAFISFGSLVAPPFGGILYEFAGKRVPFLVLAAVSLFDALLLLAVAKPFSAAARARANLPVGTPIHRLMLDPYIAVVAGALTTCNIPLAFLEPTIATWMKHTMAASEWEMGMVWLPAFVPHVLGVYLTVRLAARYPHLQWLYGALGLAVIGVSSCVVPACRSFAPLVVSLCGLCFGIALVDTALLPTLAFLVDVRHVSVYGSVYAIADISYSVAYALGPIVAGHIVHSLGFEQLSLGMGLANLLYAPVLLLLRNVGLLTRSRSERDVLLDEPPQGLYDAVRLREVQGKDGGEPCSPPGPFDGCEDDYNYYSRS
Description: Displacement of (-)-[3H]vesamicol from rat VAchT transfected in rat PC12 cells after 2 hrs by scintillation counting. In kind it is cell-based, PC-12.

What is called pKi is the negative decadic logarithm of the Ki, by convention in mol/L. Low readings indicate a high Ki, high ones a low Ki. In experiment [1], `CCN(C(=O)C[18F])c1cccc2c1C[C@@H](N1CCC(c3ccccc3)CC1)[C@H](O)C2` had a negative-log Ki (pKi) of 9.49. In experiment [2], `O=C(c1ccc([18F])cc1)N1CCOC2C[C@@H](O)[C@H](N3CCC(c4ccccc4)CC3)CC21` (mixture of isomers) gave a pKi of 7.56.

`O=C(c1ccc(F)cc1)c1cc2c([nH]1)C[C@@H](N1CCC(c3ccccc3)CC1)[C@H](O)C2` (racemic): the pKi in experiment [3] is 6.51.

In experiment [3], `O=C(c1ccc(F)cc1)c1cc2c([nH]1)C[C@@H](O)[C@H](N1CCC(c3ccccc3)CC1)C2` (racemic) had a pKi of 5.14. The compound `O[C@@H]1CCN(Cc2ccc([18F])cc2)C[C@H]1N1CCC(c2ccccc2)CC1` (racemic) had a pKi in experiment [1] of 9.36.
